According to patent US10597388B2, “Pyridazinone herbicides” (FMC CORPORATION, priority 2014, dated 2020):

Assays:
Assay type in all cases: in vivo
[1] = tested on: galium (catchweed bedstraw, Galium aparine); assay: Test A greenhouse herbicide test, postemergence
Summary of the method: (§1)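 Seedlings in a loam soil and sand mix received formulated compound postemergence at the one- to two-leaf stage. Greenhouse holding lasts approximately 10 d, then injury is scored visually relative to untreated plants, 0 meaning no effect and 100 complete control.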

[2] = tested on: blackgrass (Alopecurus myosuroides); assay: Test A greenhouse herbicide test, postemergence
Summary of the method: as §1

kochia (Kochia scoparia) = assay: Test A greenhouse herbicide test, pre- and postemergence
Summary of the method: (§2)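 Visual injury ratings, 0 (no effect) to 100 (complete control), versus untreated plants after roughly 10 d in a greenhouse. Compounds, formulated in a surfactant-containing non-phytotoxic solvent, were sprayed on loam–sand soil after sowing (pre) or on one- to two-leaf plants 2–10 cm tall (post).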

[3] = tested on: pigweed (Amaranthus retroflexus); assay: as above
Summary of the method: as §2

corn (Zea mays) = assay: as above; conditions: Postemergence
Summary of the method: as §2

[4] = tested on: barnyardgrass (Echinochloa crus-galli); assay: as above
Summary of the method: as §2

[5] = tested on: ryegrass, Italian (Italian ryegrass, Lolium multiflorum); assay: as above
Summary of the method: as §2

[6] = tested on: foxtail, giant (giant foxtail, Setaria faberii); assay: as above
Summary of the method: as §2

[7] = tested on: wheat (Triticum aestivum); assay: as above; conditions: Postemergence
Summary of the method: as §2

[8] = tested on: ragweed (common ragweed, Ambrosia elatior); assay: as above
Summary of the method: as §2

rice (Oryza sativa) = assay: Test B flooded paddy test; conditions: 250 g ai/ha, Flood; visual rating on scale of 0 to 100 where 0 is no effect and 100 is complete control; 13 to 15 d after treatment
Summary of the method: (§3)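 Ratings use a 0-100 visual scale, where 100 is complete control, and compare treated plants with controls after 13 to 15 d of greenhouse growth. Compound went straight into paddy water kept 3 cm over the soil surface, applied to seedlings at the 2-leaf stage.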

[9] = tested on: ducksalad (Heteranthera limosa); assay: Test B flooded paddy test; conditions: 250 g ai/ha, Flood; visual rating on scale of 0 to 100 where 0 is no effect and 100 is complete control; 13 to 15 d after treatment
Summary of the method: as §3

[10] = tested on: barnyardgrass (Echinochloa crus-galli); assay: Test B flooded paddy test; conditions: 250 g ai/ha, Flood; visual rating on scale of 0 to 100 where 0 is no effect and 100 is complete control; 13 to 15 d after treatment
Summary of the method: as §3

[11] = tested on: sedge, umbrella (small-flower umbrella sedge, Cyperus difformis); assay: Test B flooded paddy test; conditions: 250 g ai/ha, Flood; visual rating on scale of 0 to 100 where 0 is no effect and 100 is complete control; 13 to 15 d after treatment
Summary of the method: as §3

[12] = 125 g ai/ha, 0 to 100 scale, 0 no effect, 100 complete control
[13] = 500 g ai/ha, visual rating after approx. 10 d, 0 to 100 scale (0 no effect, 100 complete control)
[14] = Postemergence, 125 g ai/ha, 0 to 100 scale, 0 no effect, 100 complete control
[15] = Postemergence, 500 g ai/ha, visual rating after approx. 10 d, 0 to 100 scale (0 no effect, 100 complete control)
[16] = Preemergence, 125 g ai/ha, visual injury rating, 0 to 100 scale (0 no effect, 100 complete control), approx. 10 d
[17] = Preemergence, 500 g ai/ha, 0 to 100 scale where 0 is no effect and 100 is complete control

SMILES	Plant response rating, Galium [1, 12]	Plant response rating, Galium [1, 13]	Plant response rating, Blackgrass [2, 12]	Plant response rating, Blackgrass [2, 13]	Plant response rating, Kochia (kochia (Kochia scoparia); [14])	Plant response rating, Kochia (kochia (Kochia scoparia); [15])	Plant response rating, Kochia (kochia (Kochia scoparia); [16])	Plant response rating, Kochia (kochia (Kochia scoparia); [17])	Plant response rating, Pigweed [3, 14]	Plant response rating, Pigweed [3, 15]	Plant response rating, Pigweed [3, 16]	Plant response rating, Pigweed [3, 17]	Plant response rating, Corn (corn (Zea mays); [12])	Plant response rating, Corn (corn (Zea mays); [13])	Plant response rating, Barnyardgrass [4, 14]	Plant response rating, Barnyardgrass [4, 15]	Plant response rating, Barnyardgrass [4, 16]	Plant response rating, Barnyardgrass [4, 17]	Plant response rating, Ryegrass, Italian [5, 14]	Plant response rating, Ryegrass, Italian [5, 15]	also measured
Cc1ccc2sc(C)c(-c3c(OCC#N)c(C)nn(C)c3=O)c2c1 [Compound 160]	70	90	10	20	30	60	20	20	80	90	50	100	0	0	10	20	10	10	30	90	Plant response rating, Ryegrass, Italian [5, 16]: 20; Plant response rating, Ryegrass, Italian [5, 17]: 80; Plant response rating, Foxtail, Giant [6, 14]: 10; Plant response rating, Foxtail, Giant [6, 15]: 20; Plant response rating, Foxtail, Giant [6, 16]: 10; Plant response rating, Foxtail, Giant [6, 17]: 30; Plant response rating, Wheat [7, 12]: 0; Plant response rating, Wheat [7, 13]: 0; Plant response rating, Ragweed [8, 14]: 70; Plant response rating, Ragweed [8, 15]: 80; Plant response rating, Ragweed [8, 16]: 30; Plant response rating, Ragweed [8, 17]: 80; Plant response rating, Rice (rice (Oryza sativa)): 0; Plant response rating, Ducksalad [9]: 0; Plant response rating, Barnyardgrass [10]: 0; Plant response rating, Sedge, Umbrella [11]: 0
Cc1nn(C)c(=O)c(-c2c([N+](=O)[O-])ccc3ccccc23)c1OC(=O)C(C)(C)C [Compound 163]	30	60	0	20	0	20	0	0	0	20	30	70	0	0	0	0	0	0	20	70	Plant response rating, Ryegrass, Italian [5, 16]: 10; Plant response rating, Ryegrass, Italian [5, 17]: 50; Plant response rating, Foxtail, Giant [6, 14]: 0; Plant response rating, Foxtail, Giant [6, 15]: 0; Plant response rating, Foxtail, Giant [6, 16]: 0; Plant response rating, Foxtail, Giant [6, 17]: 0; Plant response rating, Wheat [7, 12]: 0; Plant response rating, Wheat [7, 13]: 0; Plant response rating, Ragweed [8, 14]: 0; Plant response rating, Ragweed [8, 15]: 0; Plant response rating, Ragweed [8, 16]: 0; Plant response rating, Ragweed [8, 17]: 0; Plant response rating, Rice (rice (Oryza sativa)): 0; Plant response rating, Ducksalad [9]: 0; Plant response rating, Barnyardgrass [10]: 0; Plant response rating, Sedge, Umbrella [11]: 0
Cc1n[nH]c(=O)c(-c2cccc3ccccc23)c1O [Compound 169]	30	70	10	20	40	100	20	90	20	70	50	100	0	30	0	20	0	30	70	100	Plant response rating, Ryegrass, Italian [5, 16]: 80; Plant response rating, Ryegrass, Italian [5, 17]: 100; Plant response rating, Foxtail, Giant [6, 14]: 0; Plant response rating, Foxtail, Giant [6, 15]: 30; Plant response rating, Foxtail, Giant [6, 16]: 0; Plant response rating, Foxtail, Giant [6, 17]: 30; Plant response rating, Wheat [7, 12]: 0; Plant response rating, Wheat [7, 13]: 30; Plant response rating, Ragweed [8, 14]: 0; Plant response rating, Ragweed [8, 15]: 80; Plant response rating, Ragweed [8, 16]: 0; Plant response rating, Ragweed [8, 17]: 20; Plant response rating, Rice (rice (Oryza sativa)): 0; Plant response rating, Ducksalad [9]: 0; Plant response rating, Barnyardgrass [10]: 0; Plant response rating, Sedge, Umbrella [11]: 0
Cc1nn(C)c(=O)c(-c2c(C)sc3ccccc23)c1OC(=O)N1CCOCC1 [Compound 170]	40	80	0	10	0	70	0	0	70	80	30	100	0	0	0	10	0	0	0	50	Plant response rating, Ryegrass, Italian [5, 16]: 0; Plant response rating, Ryegrass, Italian [5, 17]: 40; Plant response rating, Foxtail, Giant [6, 14]: 0; Plant response rating, Foxtail, Giant [6, 15]: 10; Plant response rating, Foxtail, Giant [6, 16]: 0; Plant response rating, Foxtail, Giant [6, 17]: 0; Plant response rating, Wheat [7, 12]: 0; Plant response rating, Wheat [7, 13]: 0; Plant response rating, Ragweed [8, 14]: 40; Plant response rating, Ragweed [8, 15]: 80; Plant response rating, Ragweed [8, 16]: 0; Plant response rating, Ragweed [8, 17]: 20; Plant response rating, Rice (rice (Oryza sativa)): 0; Plant response rating, Ducksalad [9]: 0; Plant response rating, Barnyardgrass [10]: 0; Plant response rating, Sedge, Umbrella [11]: 60
COC(=O)Cn1nc(C)c(O)c(-c2cccc3ccccc23)c1=O [Compound 172]	20	40	20	30	0	20	0	0	0	30	0	0	0	0	40	70	20	50	20	60	Plant response rating, Ryegrass, Italian [5, 16]: 0; Plant response rating, Ryegrass, Italian [5, 17]: 20; Plant response rating, Foxtail, Giant [6, 14]: 40; Plant response rating, Foxtail, Giant [6, 15]: 80; Plant response rating, Foxtail, Giant [6, 16]: 60; Plant response rating, Foxtail, Giant [6, 17]: 90; Plant response rating, Wheat [7, 12]: 20; Plant response rating, Wheat [7, 13]: 20; Plant response rating, Ragweed [8, 14]: 0; Plant response rating, Ragweed [8, 15]: 0; Plant response rating, Ragweed [8, 16]: 0; Plant response rating, Ragweed [8, 17]: 0; Plant response rating, Rice (rice (Oryza sativa)): 0; Plant response rating, Ducksalad [9]: 0; Plant response rating, Barnyardgrass [10]: 0; Plant response rating, Sedge, Umbrella [11]: 0
